Measured values as given in US12715867B2, “Agonists of free fatty acid receptor 1 and their use in diseases associated with said receptor” (HALO Therapeutics Ltd, priority 2020, dated 2026).

Tested on: C57Bl/6N male mice
Test: OGTT testing in C57Bl/6N male mice (oral glucose tolerance test)
Format: in vivo
Settings: single per os dose 60 min before glucose 2 g/kg; Z1558775684 20 mg/kg, Metformin 300 mg/kg; compared with Vehicle-treated group; 5 mice per group
Method: Values are expressed as means of 5 animals tested. For glucose tolerance test (GTT), mice were orally treated with glucose at dose of 2 g/kg at the dose volume of 10 ml/kg after a 6-hour fasting. Glucose measurements were performed immediately before compound treatment (−60 min), at −30 min, 0 min (before glucose administration), and then 15, 30, 60, 90 and 120 min after glucose administration.
Example 87: OGTT Testing in C57Bl/6N Male Mice
Each experimental group consisted of five male C57Bl/6N mice. Animals were dosed once perorally with 20 mg/kg of tested compound Z1558775684. A control group was dosed with vehicle on the same schedule. Metformin at the dosage of 300 mg/kg was used as reference compound.
Compound Z1558775684 was dissolved/suspended in DMSO—PEG400—physiological saline (20%:50%:30%) at concentration 4 mg/ml. Metformin was dissolved in the same vehicle at concentration 60 mg/ml. The test samples were administered per os in the volume corresponding to 5 ml/kg body weight.
Single doses of test samples were administered 60 min before glucose treatment at 3 p.m.
The blood glucose level was measured after 6-hour fasting using Call Plus glucometer and specific test strips. Blood was obtained from the tail vein by incision of the tail tip, 5-6 μl of blood was used for each assay. […]

SMILES	glucose level during oral glucose tolerance test (OGTT)
CN(C)C(=N)N=C(N)N [Metformin]	Statistically significant decrease in glucose level
CCc1nc(N)nc(SCc2ncc(-c3cccc(Cl)c3)o2)n1 [Compound Z1558775684, 4-(((5-(3-chlorophenyl)oxazol-2-yl)methyl)thio)-6-ethyl-1,3,5-triazin-2-amine]	Statistically significant decrease in glucose level
